Values joined by “and” are separate entries in the source; they are usually repeats but may differ in a detail not shown here. Equal entries are not always repeated. “Also recorded” adds a separate entry of the source. Where two headings read alike, the source gives them in different places.
What was measured:
mGlu2/3 receptors = conditions: cited from earlier work
[1] = test system: human cryopreserved hepatocytes; test: In vitro metabolite profiling in human cryopreserved hepatocytes; type: in vitro ADME; conditions: human hepatocytes
Description: (§1) Rat, monkey, or human cryopreserved hepatocytes in Leivovitz L‐15 medium at 0.5 million cells/mL were incubated at 37°C for 1 hour with [^14C]MGS0274 besylate at 10 μmol/L. The reaction was terminated by adding 10% w/v trichloroacetic acid solution, and the resultant mixture was centrifuged. Aliquots of the supernatant were subjected to bioanalysis using high‐performance liquid chromatography equipped with radiochemical flow detection (RI‐HPLC) (see Table S1‐B). Aliquots of the supernatant from unlabeled incubation samples and authentic standards were also injected into a liquid chromatography‐mass spectrometry (LC‐MS) system under the same chromatographic conditions to compare their chromatographic retention times and mass spectral data (see Table S1‐B).

[2] = Plasma and CSF distribution of MGS0008 in rats; type: in vivo; conditions: Wistar, rat, fasted male rats, MGS0008 oral 3 mg/kg
Description: (§2) The pharmacokinetic profiles of MGS0008 and MGS0274 were investigated in fasted male Wistar rats (n = 3) and fed male cynomolgus monkeys (n = 4). Monkeys had been given 60 g of a primate diet (PS‐A; Oriental Yeast, Tokyo, Japan) one hour before administration. For intravenous administration, MGS0008 was dissolved in saline (pH7.4) and administered to rats (3 mg/kg) and monkeys (1 mg/kg). Blood samples were collected from the tail vein (rats) or the forelimb cephalic vein (monkeys) into tubes containing EDTA‐2K at 5, 15, and 30 minutes and at 1, 2, 4, 8, and 24 hours postdose for both species, and an additional sample was collected at 12 hours postdose for monkeys. Urine samples were collected until 48 hours at 24‐hour intervals (rats) or at 0‐ to 8‐hour, 8‐ to 24‐hour, and 24‐ to 48‐hour intervals (monkeys). The plasma or urine samples was mixed with acetonitrile/methanol (9:1, v/v) containing [^13C2 ^15N]MGS0008 and centrifuged. Aliquots of the supernatant were subjected to bioanalysis using LC‐MS/MS (see Table S1‐E). For oral administration, MGS0008 was dissolved in distilled water (rats) or 0.5% w/v methylcellulose 400 (monkeys) and administered to rats (3 mg/kg) and monkeys (1 mg/kg). MGS0274 besylate was suspended in 0.5% w/v methylcellulose 400 containing 0.1% v/v Tween 80 and administered to monkeys at a dose of 2.89 mg/kg (1‐mg equivalent of MGS0008/kg). Blood samples were collected from the tail vein (rats) or the forelimb cephalic vein (monkeys) into tubes containing EDTA‐2K at 30 minutes, 1, 1.5, 2, 4, 6, 8, and 24 hours postdose for rats, and 30 minutes, 1, 2, 4, 8, 12, and 24 hours postdose for monkeys. The plasma samples were mixed with acetonitrile/methanol (9:1, v/v) containing internal standards ([^13C2 ^15N]MGS0008 and MGS0039) and centrifuged. Aliquots of the supernatant were subjected to bioanalysis using LC‐MS/MS (see Tables S1‐E and F). In the study examining the tissue distribution of MGS0008 in rats (3 mg/kg), blood samples were collected from the posterior vena cava into tubes containing EDTA‐2K under isoflurane anesthesia at 1.5, 4, 6, or 24 hours postdose. Then, the animals were euthanized by exsanguination from the abdominal aorta; cerebrospinal fluid (CSF) samples were drawn from the spinal cord space in each animal. The plasma or CSF was mixed with acetonitrile/methanol (9:1, v/v) containing [^13C2 ^15N]MGS0008 and centrifuged. Aliquots of the supernatant were subjected to bioanalysis using LC‐MS/MS (see Table S1‐E).
(§3) The plasma concentration‐time profiles of MGS0008 and MGS0274 were analyzed using a non‐compartmental analysis method with pharmacokinetic analysis software Phoenix® WinNonlin® 6.2 or later (Certara, Princeton, NJ).

[3] = test system: phencyclidine-induced locomotor hyperactivity; conditions: rat, oral 3 mg/kg; cited from earlier work
[4] = Prediction of human pharmacokinetic parameters by single-species allometric scaling
Description: The prediction of CLtotal, Vdss, and t1/2 in humans was performed using single‐species allometric scaling methods 14 with the pharmacokinetic parameters obtained from the intravenous administration of MGS0008 to rats and monkeys, unbound fraction of MGS0008 in rat, monkey, and human plasma (1.0), and body weight of rats (0.3 kg), monkeys (5 kg), and humans (60 kg).

[5] = Pharmacokinetics of MGS0008 in monkeys (intravenous or oral); type: in vivo, cynomolgus monkey; conditions: fed male monkeys; for AUC(0-t): read-out: AUC0–24h
Description: as §2, §3

[6] = test system: conditioned avoidance responses; conditions: rat; cited from earlier work
CYP3A = CYP3A (Homo sapiens, UniProt P08684); test: CYP inhibition in human liver microsomes, CYP3A; type: in vitro ADME; conditions: probe testosterone (6β-hydroxytestosterone formation), human liver microsomes 0.1 mg/mL, metabolite 6β-Hydroxytestosterone
Description: The inhibition potential of MGS0008 (0.3‐100 µmol/L) and MGS0274 besylate (0.03‐10 µmol/L) on the activity of human cytochrome P450 (CYP) isoforms (CYP1A2, 2B6, 2C8, 2C9, 2C19, 2D6, and 3A) was investigated using probe substrates for each CYP isoform and human liver microsomes, of which the final protein concentration was set at 0.1 mg/mL (see Table S2). The assay was started by spiking the reaction mixture, which had been pre‐incubated at 37°C for 5 minutes, with NADP^+. After incubation for 5 to 10 minutes, the reaction was terminated by adding acetonitrile containing an internal standard for each probe substrate, and the resultant mixture was centrifuged. Aliquots of the supernatant were subjected to bioanalysis using LC‐MS/MS (see Table S1‐D).
The final protein concentration in the reaction mixture was set at 0.1 mg/mL. The values in parentheses represent the final concentrations of compounds added in each reaction mixture. […]

[7] = test system: monkey cryopreserved hepatocytes; test: In vitro metabolite profiling in monkey cryopreserved hepatocytes; type: in vitro ADME; conditions: monkey hepatocytes
Description: as §1

[8] = CSF, read-out: CSF concentration
[9] = plasma, read-out: Plasma concentration
[10] = single-species allometric scaling from the monkey data
[11] = single-species allometric scaling from the rat data
[12] = cynomolgus monkey, MGS0008 intravenous 1 mg/kg, plasma
[13] = cynomolgus monkey, MGS0008 oral 1 mg/kg, plasma

CYP3A, sequence (P08684 2-503): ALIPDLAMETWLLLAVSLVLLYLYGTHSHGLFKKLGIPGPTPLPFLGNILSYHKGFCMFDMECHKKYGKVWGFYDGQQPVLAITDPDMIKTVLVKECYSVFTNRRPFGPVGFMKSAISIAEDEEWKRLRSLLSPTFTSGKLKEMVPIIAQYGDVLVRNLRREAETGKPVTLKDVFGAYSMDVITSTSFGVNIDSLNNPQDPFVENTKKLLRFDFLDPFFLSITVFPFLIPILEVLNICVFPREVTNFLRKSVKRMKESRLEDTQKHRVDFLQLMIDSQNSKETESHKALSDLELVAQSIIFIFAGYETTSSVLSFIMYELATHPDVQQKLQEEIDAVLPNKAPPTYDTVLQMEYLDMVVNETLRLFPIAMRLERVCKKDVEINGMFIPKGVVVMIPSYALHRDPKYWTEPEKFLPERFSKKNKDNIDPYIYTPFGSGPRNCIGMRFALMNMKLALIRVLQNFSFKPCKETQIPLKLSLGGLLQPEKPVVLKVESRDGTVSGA

## N[C@]1(C(=O)O)[C@H]2[C@@H](C[C@@H]1F)[C@@H]2C(=O)O [MGS0008, (1S,2S,3S,5R,6S)‐2‐amino‐3‐fluorobicyclo[3.1.0]hexane‐2,6‐dicarboxylic acid]
mGlu2/3 receptors
  agonist activity for mGlu2/3 receptors: potent agonist activity
[1]
  further metabolism of MGS0008 in hepatocytes: not metabolized
[2]; CSF/plasma, read-out: CSF/plasma AUC ratio
  Kp: 0.028
[2]; [8]
  concentration at 1.5 h: 19.1 ± 5.08 ng/mL
  concentration at 4 h: 7.88 ± 1.04 ng/mL
  concentration at 6 h: 4.84 ± 0.384 ng/mL
  concentration at 24 h: 2.04 ± 0.0265 ng/mL
[2]; CSF, read-out: AUC0–24h in CSF
  AUC(0-t): 123 ± 7.37 ng·h/mL
[2]; [9]
  concentration at 1.5 h: 1980 ± 431 ng/mL
  concentration at 4 h: 138 ± 64.2 ng/mL
  concentration at 6 h: 6.23 ± 1.83 ng/mL
[2]; plasma, below lower limit of quantification, read-out: Plasma concentration
  concentration at 24 h: < 3 ng/mL
[2]; plasma, read-out: AUC0–24h in plasma
  AUC(0-t): 4330 ± 719 ng·h/mL
[3]
  phencyclidine-induced locomotor hyperactivity: inhibited; also recorded: significantly decreased
[4]; [10]
  predicted CLtotal in humans: 1.16 mL/min/kg
  predicted Vdss in humans: 0.181 L/kg
  predicted t1/2 in humans: 1.8 h
[4]; [11]
  predicted CLtotal in humans: 2.43 mL/min/kg
  predicted Vdss in humans: 0.545 L/kg
  predicted t1/2 in humans: 2.6 h
[5]; cynomolgus monkey, plasma, MGS0008 intravenous 1 mg/kg, below lower limit of quantification
  concentration at 24 h: < 3 ng/mL
[5]; cynomolgus monkey, plasma, MGS0008 intravenous 1 mg/kg, mean ± SD (n = 4), read-out: CLtotal (converted)
  clearance: 2.15 mL/min/kg
[5]; cynomolgus monkey, plasma, MGS0008 intravenous 1 mg/kg, mean ± SD (n = 4), read-out: Vdss
  Vd: 0.181 ± 0.0214 L/kg
[5]; cynomolgus monkey, plasma, MGS0008 oral 1 mg/kg, AUC0-24h oral / AUC0-24h intravenous × 100
  bioavailability: 3.8 ± 2.8%
[5]; cynomolgus monkey, urine and plasma, MGS0008 intravenous 1 mg/kg
  CL renal: 2.07 mL/min/kg
[5]; [12]
  half-life: 1.48 ± 0.0435 h
  AUC(0-t): 7830 ± 776 ng·h/mL
[5]; [13]
  Cmax: 20.5 ± 11.5 ng/mL
  Tmax: 9 ± 10 h
  AUC(0-t): 281 ± 177 ng·h/mL
[5]; MGS0008 intravenous 1 mg/kg
  vomiting: three of the four monkeys experienced transient vomiting
[5]; MGS0008 intravenous 1 mg/kg, within 48 hours, % of administered dose, 1 mg/kg
  Urinary excretion (unchanged form): 96.4% and 96.4 ± 7.51%
[6]
  conditioned avoidance responses: reduced
CYP3A
  IC50: > 100 µM
[7]
  further metabolism of MGS0008 in hepatocytes: no metabolites

Source: publication PMC6743422, “Preclinical disposition of MGS0274 besylate, a prodrug of a potent group II metabotropic glutamate receptor agonist MGS0008 for the treatment of schizophrenia” (Pharmacology Research & Perspectives, 2019)
